{"source": "patent US20110065645A1", "about": "“Compositions and Methods for Modulating Neuron Degeneration and Neuron Guidance” (The Regents of the University of California, priority 2009, published 2011)", "key": {"commissural axons": {"tested_on": "commissural axons", "experiment": "Open book spinal cord explant treatments and DiI injections (midline pathfinding)", "type": "cell-based", "conditions": "rat E13 open-book; 5E1 100 ng/ml, Forskolin 25 μM, KT5720 25 μM; 12-14 hrs", "description": "Blocking Shh activity causes midline guidance defects. To determine the role of Shh in regulating midline pathfinding, we analyzed the trajectory of commissural axons in rat E13 “open-book” spinal cord preparations treated with the function-blocking antibody for Shh, 5E1. The projections of these commissural axons were visualized by injecting the lipophilic dye, DiI, to the dorsal margin of the spinal cord (FIG. 32J). In “open-book” explants, commissural axons can recapitulate the in vivo pathfinding and project from the dorsal spinal cord margin across the floor plate and then turn sharply anteriorly on the contralateral side.^(7,8). […] Normally, after midline crossing, commissural axons make a sharp anterior turn and either project into the ventral funiculus alongside the floor plate or fan out in a highly organized manner to grow laterally into the lateral funiculus^(7) (FIG. 32G). […] The spinal cord midline is a three-dimensional structure. […] Some of the injection sites were therefore scored for more than one category of phenotypes. […]\nShh may induce Sema repulsion by reducing cAMP/PKA signaling. […] In “open-book” explant cultures we treated commissural axons with the activator for adenylyl cyclase (and consequently cAMP), Forskolin and the PKA inhibitor KT5720 and analyzed commissural axon pathfidning by DiI tracing as shown in FIG. 32J. […]"}, "PKA": {"tested_on": "PKA", "experiment": "Western blot of activated phospho-PKA (Thr197) in dissociated commissural neurons", "type": "cell-based, rat", "conditions": "Shh-N 2.5 μg/ml for one hour; KT5720 25 μM for 15 minutes", "protocol": "To confirm that PKA activity can be reduced in commissural neurons exposed to Shh, we treated dissociated spinal cord commissural neurons with Shh and analyzed the level of activated PKA. 24 hr after plating, commissural neurons were serum starved overnight and then treated with 2.5 μg/ml (150 nM) of Shh-N recombinant protein (R&D) for one hour prior to lysate collection. Forskolin (25 μM), and the PKA inhibitor, KT5720 (25 μM) were added to the commissural neuron culture as controls for 15 minutes before lysis. We then tested these lysates for levels of activated PKA with an antibody that specifically recognizes an activated form of the catalytic domain of PKA (phosphorylated at Thr197).\nDissociated commissural neuronal culture. Spinal cords were isolated from rat E13 embryos and commissural neurons were dissociated as previously described.^(8) In brief, embryos were treated with Dispase I (0.25 mg/ml; D4818, Sigma) for 5 minutes prior isolation of spinal cords, followed by collection of spinal cord dorsal domains by microdissection and incubation with Trypsin (1 mg/ml; T47-99, Sigma) for 10-12 min in a 37° C. water bath. The tissue was then triturated with flamed glass pipettes and a single cell suspension was plated on poly-D-lysine (PDL; 20 μg/ml) and laminin (10 μg/ml) coated coverslips or 12 well plates (Corning). More than 90% cells in these cultures express TAG-1, a marker for spinal cord commissural neurons (FIG. 35B). 10^5 dissociated cells were plated on PDL/laminin coated coverslips and cultured for 24 hrs before processed for immunohistochemistry as described above. For Western blot analysis, 10^6 dissociated cells were plated on PDL/laminin coated 12-well tissue culture plates and cultured initially for 24 hrs in dorsal explant media (replenished daily) then changed to low serum medium overnight prior to treatments. […]"}}, "data": [{"smiles": "CCCCCCOC(=O)[C@]1(O)C[C@@H]2O[C@@]1(C)n1c3ccccc3c3c4c(c5c6ccccc6n2c5c31)C(=O)NC4", "note": "[KT5720, reference compound]", "values": [{"measurement": "commissural axon midline pathfinding (DiI tracing)", "setting": "commissural axons", "value": "prevented a vast number of axons from entering the floor plate"}, {"measurement": "level of activated PKA", "setting": "PKA", "value": "reduce the level of activated PKA"}]}]}
